The source of these data is patent US20250171417A1, “HETEROCYCLIC DERIVATIVE, AND COMPOSITION AND PHARMACEUTICAL USE THEREOF” (Xizang Haisco Pharmaceutical Co., Ltd., priority 2021, published 2025).

One test has as its system Prostate cancer cells 22RV1. Nature of the test: Experiment on inhibiting 22RV1 cell proliferation (CellTiter-Glo, 7 days). Format: cell-based. The note with it: Homo sapiens, 168 h, 22RV1 cells, 7 days incubation, cells with nM printed beside the value, read-out: IC50 values for inhibition of 22RVI cells. As for the experimental part: Prostate cancer cells 22RV1 were purchased from ATCC, the cell medium was RPMI 1640+10% FBS, and the cells were cultured in an incubator at 37° C. under 5% CO2. On day 1, the cells in the exponential growth phase were collected. With a 1% css-FBS phenol red-free medium, the cell suspension was adjusted to a corresponding concentration, plated at 2000 cells/well and incubated overnight. On day 2, compounds at different concentrations were added, and the plate was placed in the incubator and incubated for further 7 days. After the incubation was completed, according to operation instructions for a CellTiter-Glo kit (Promega, G7573), 50 μL of CellTiter-Glo reagents, which were already pre-melted and equilibrated to room temperature, were added to each well, and the mixtures were uniformly mixed for 2 min using a microplate shaker. The plate was placed at room temperature for 10 min. and then […] signal values were measured using a microplate reader (PHERAstar FSX). The results were processed according to formula (I), the inhibition rate of the compound at different concentrations was calculated, and the IC50 value of the compound with an inhibition rate of 50% was calculated using origin9.2 software with DoseResp function, wherein RLUcompound was the readout of the treated group, and RLUcontrol was the average value of the DMSO vehicle control group.
Background: ATP-based viability assays read luminescence as a measure of living cells.
The term IC50 denotes the concentration needed to halve the response being measured. With `CN(C)c1cc(C(F)(F)F)ccc1NC(=O)C(C)(C)n1cc(C#CC2CN(c3ccc4c(c3)C(=O)N(C3CCC(=O)NC3=O)C4=O)C2)cn1` (stereo not shown) [Compound 182, N-(2-(dimethylamino)-4-(trifluoromethyl)phenyl)-2-(4-((1-(2-(2,6-dioxopiperidin-3-yl)-1,3-dioxoisoindolin-5-yl)azetidin-3-yl)ethynyl)-1H-pyrazol-1-yl)-2-methylpropanamide], the IC50 was < 100 nM.
Same read-out and setting: to `C=CCc1cc(C(F)(F)F)ccc1NC(=O)C(C)(C)n1cc(C#CC2CN(c3ccc4c(c3)C(=O)N(C3CCC(=O)NC3=O)C4=O)C2)cn1` (stereo not shown) [Compound 169, N-(2-allyl-4-(trifluoromethyl)phenyl)-2-(4-((1-(2-(2,6-dioxopiperidin-3-yl)-1,3-dioxoisoindolin-5-yl)azetidin-3-yl)ethynyl)-1H-pyrazol-1-yl)-2-methylpropanamide] belongs < 50 nM.
On the same count and under the same terms, to `CN(C)c1ccc(NC(=O)C2(n3cc(C#CC4CN(c5ccc6c(c5)C(=O)N(C5CCC(=O)NC5=O)C6=O)C4)cn3)CCC2)c(Cl)c1` (stereo not shown) [Compound 181, N-(2-chloro-4-(dimethylamino)phenyl)-1-(4-(2-(1-(2-(2,6-dioxopiperidin-3-yl)-1,3-dioxo-2,3-dihydro-1H-isoindol-5-yl)azetidin-3-yl)ethynyl)-1H-pyrazol-1-yl)cyclobutane-1-carboxamide] belongs < 50 nM; to `CC(C)(C(=O)Nc1ccc(C#N)cc1Br)n1cc(C#CC2CN(c3ccc4c(c3)C(=O)N(C3CCC(=O)NC3=O)C4=O)C2)cn1` (stereo not shown) [Compound 82, N-(2-bromo-4-cyanophenyl)-2-(4-((1-(2-(2,6-dioxopiperidin-3-yl)-1,3-dioxoisoindolin-5-yl)azetidin-3-yl)ethynyl)-1H-pyrazol-1-yl)-2-methylpropanamide], < 50 nM; to `Cn1c(C(F)(F)F)ccc(NC(=O)C(C)(C)n2cc(C#CC3CN(c4ccc5c(c4)C(=O)N(C4CCC(=O)NC4=O)C5=O)C3)cn2)c1=O` (stereo not shown) [Compound 178], < 50 nM.
The same measure, in the same setting: to `N#Cc1ccc(NC(=O)C2(n3cc(C#CC4CN(c5ccc6c(c5)C(=O)N(C5CCC(=O)NC5=O)C6=O)C4)cn3)CCC2)c(C2CC2)c1` (stereo not shown) [Compound 45, N-(4-cyano-2-cyclopropylphenyl)-1-(4-((1-(2-(2,6-dioxopiperidin-3-yl)-1,3-dioxoisoindolin-5-yl)azetidin-3-yl)ethynyl)-1H-pyrazol-1-yl)cyclobutane-1-carboxamide] belongs < 50 nM.
In the case of `N#Cc1ccc(NC(=O)C2(n3cc(C#CC4CN(c5ccc6c(c5)C(=O)N(C5CCC(=O)NC5=O)C6=O)C4)cn3)CCC2)cc1N1CCCC1` (stereo not shown) [Compound 50, N-(4-cyano-3-(pyrrolidin-1-yl)phenyl)-1-(4-((1-(2-(2,6-dioxopiperidin-3-yl)-1,3-dioxoisoindolin-5-yl)azetidin-3-yl)ethynyl)-1H-pyrazol-1-yl)cyclobutane-1-carboxamide], the IC50 is < 100 nM.
Consider `CC#Cc1cc(C(F)(F)F)ccc1NC(=O)C(C)(C)n1ncc(C#CC2CN(c3ccc4c(c3)C(=O)N(C3CCC(=O)NC3=O)C4=O)C2)c1C` (stereo not shown) [Compound 194, 2-(4-((1-(2-(2,6-dioxopiperidin-3-yl)-1,3-dioxoisoindolin-5-yl)azetidin-3-yl)ethynyl)-5-methyl-1H-pyrazol-1-yl)-2-methyl-N-(2-(prop-1-yn-1-yl)-4-(trifluoromethyl)phenyl) propanamide], for which the half-inhibitory concentration (IC50) is < 100 nM.

Staying with this test, now noted: Homo sapiens, 168 h, 22RV1 cells, 7 days incubation, cells without a unit of their own (μM), read-out: IC50 values for inhibition of 22RVI cells.
`CC(C)(C(=O)Nc1ccc(C(F)(F)F)cc1C#N)n1cc(C#CC2CN(c3ccc4c(c3)C(=O)N(C3CCC(=O)NC3=O)C4=O)C2)cn1` (stereo not shown) [Compound 42, N-(2-cyano-4-(trifluoromethyl)phenyl)-2-(4-((1-(2-(2,6-dioxopiperidin-3-yl)-1,3-dioxoisoindolin-5-yl)azetidin-3-yl)ethynyl)-1H-pyrazol-1-yl)-2-methylpropanamide]: the IC50 is < 1000 nM.
Same read-out and setting: the same measure for `CCC(C)(C(=O)Nc1ccc(C#N)c(C(F)(F)F)c1)n1cc(C#CC2CN(c3ccc4c(c3)C(=O)N(C3CCC(=O)NC3=O)C4=O)C2)cn1` (stereo not shown) [Compound 46, N-(4-cyano-3-(trifluoromethyl)phenyl)-2-(4-((1-(2-(2,6-dioxopiperidin-3-yl)-1,3-dioxoisoindolin-S-yl)azetidin-3-yl)ethynyl)-1H-pyrazol-1-yl)-2-methylbutanamide]: < 1000 nM.
With `CC(C)(C(=O)Nc1ccc(C(F)(F)F)cc1Cl)n1cnc2cc(C#CC3CN(c4ccc5c(c4)C(=O)N(C4CCC(=O)NC4=O)C5=O)C3)ccc21` (stereo not shown) [Compound 162, N-(2-chloro-4-(trifluoromethyl)phenyl)-2-(5-((1-(2-(2,6-dioxopiperidin-3-yl)-1,3-dioxoisoindolin-5-yl)azetidin-3-yl)ethynyl)-1H-benzo[d]imidazol-1-yl)-2-methylpropanamide], the IC50 is < 1000 nM.
Same read-out and setting: the same measure for `CC(C)(C(=O)Nc1cc(Cl)c(C(F)(F)F)c(Cl)c1)n1cc(C#CC2CN(c3ccc4c(c3)C(=O)N(C3CCC(=O)NC3=O)C4=O)C2)cn1` (stereo not shown) [Compound 22, N-(3,5-dichloro-4-(trifluoromethyl)phenyl)-2-(4-((1-(2-(2,6-dioxopiperidin-3-yl)-1,3-dioxoisoindolin-5-yl)azetidin-3-yl)ethynyl)-1H-pyrazol-1-yl)-2-methylpropanamide]: < 1000 nM.
Same read-out and setting: to `O=C1CCC(N2C(=O)c3ccc(N4CCC5(CC4)CC(CN4CCC(c6cnn(C7(C(=O)Nc8ccc(C(F)(F)F)cc8Cl)CCC7)c6)CC4)C5)cc3C2=O)C(=O)N1` (stereo not shown) [Compound 85, N-(2-chloro-4-(trifluoromethyl)phenyl)-1 (4-(1-((7-(2-(2,6-dioxopiperidin-3-yl)-1,3-dioxoisoindolin-5-yl)-7-azaspiro[3.5]nonan-2-yl)methyl)piperidin-4-yl)-1H-pyrazol-1-yl)cyclobutane-1-carboxamide] belongs < 1000 nM; to `CC(C)(C(=O)Nc1ccc(C(F)(F)F)c(Cl)c1)n1cc(C#CC2CN(c3ccc4c(c3)C(=O)N(C3CCC(=O)NC3=O)C4=O)C2)cn1` (stereo not shown) [Compound 17, N-(3-chloro-4-(trifluoromethyl)phenyl)-2-(4-((1-(2-(2,6-dioxopiperidin-3-yl)-1,3-dioxoisoindolin-5-yl)azetidin-3-yl)ethynyl)-1H-pyrazol-1-yl)-2-methylpropanamide], < 1000 nM.
For the compound `N#Cc1ccc(NC(=O)C2(n3cc(C#CC4CN(c5cc6c(cc5F)C(=O)N(C5CCC(=O)NC5=O)C6=O)C4)cn3)CCC2)c2ccccc12` (stereo not shown) [Compound 80], the half-maximal inhibitory concentration (IC50) was < 1000 nM.
The same measure, in the same setting: to `CC(C)(C(=O)Nc1ccc(C(F)(F)F)cc1Cl)n1cnc2ccc(C#CC3CN(c4ccc5c(c4)C(=O)N(C4CCC(=O)NC4=O)C5=O)C3)cc21` (stereo not shown) [Compound 161, N-(2-chloro-4-(trifluoromethyl)phenyl)-2-(6-((1-(2-(2,6-dioxopiperidin-3-yl)-1,3-dioxoisoindolin-5-yl)azetidin-3-yl)ethynyl)-1H-benzo[d]imidazol-1-yl)-2-methylpropanamide] belongs < 1000 nM.
Same read-out and setting: to `CC(C)(C(=O)Nc1ccc(C#N)c(F)c1)n1cc(C#CC2CN(c3ccc4c(c3)C(=O)N(C3CCC(=O)NC3=O)C4=O)C2)cn1` (stereo not shown) [Compound 32, N-(4-cyano-3-fluorophenyl)-2-(4-((1-(2-(2,6-dioxopiperidin-3-yl)-1,3-dioxoisoindolin-5-yl)azetidin-3-yl)ethynyl)-1H-pyrazol-1-yl)-2-methylpropanamide] belongs < 1000 nM; to `O=C1CCC(N2C(=O)c3ccc(N4CC(C#Cc5cn(C6(C(=O)Nc7ccc(C(F)(F)F)cc7Cl)CCC6)cn5)C4)cc3C2=O)C(=O)N1` (stereo not shown) [Trifluoroacetate of compound 139, N-(2-chloro-4-(trifluoromethyl)phenyl)-1-(4-((1-(2-(2,6-dioxopiperidin-3-yl)-1,3-dioxoisoindolin-5-yl)azetidin-3-yl)ethynyl)-1H-imidazol-1-yl)cyclobutane-1-carboxamide], < 1000 nM; to `Cc1ccc(NC(=O)C(C)(C)n2cc(C#CC3CN(c4ccc5c(c4)C(=O)N(C4CCC(=O)NC4=O)C5=O)C3)cn2)cc1Cl` (stereo not shown) [Compound 18, N-(3-chloro-4-methylphenyl)-2-(4-((1-(2-(2,6-dioxopiperidin-3-yl)-1,3-dioxoisoindolin-5-yl)azetidin-3-yl)ethynyl)-1H-pyrazol-1-yl)-2-methylpropanamide], < 1000 nM.
The same measure, in the same setting: the same measure for `CC(C)(C(=O)Nc1ccc(C(F)(F)F)cc1-c1ccccc1)n1cc(C#CC2CN(c3ccc4c(c3)C(=O)N(C3CCC(=O)NC3=O)C4=O)C2)cn1` (stereo not shown) [Compound 112, 2-(4-((1-(2-(2,6-dioxopiperidin-3-yl)-1,3-dioxoisoindolin-5-yl)azetidin-3-yl)ethynyl)-1H-pyrazol-1-yl)-2-methyl-N-(5-(trifluoromethyl)-[1,1′-biphenyl]-2-yl) propanamide]: < 1000 nM; for `CC(C)(C(=O)Nc1ccc(C#N)c(C(F)(F)F)c1)n1cc(C#CC2CN(c3cc4c(cc3F)C(=O)N(C3CCC(=O)NC3=O)C4=O)C2)cn1` (stereo not shown) [Compound 3]: < 1000 nM.
For the compound `CC(C)(C(=O)Nc1ccc(C#N)c2ccccc12)n1cc(C#CC2CN(c3cc4c(cc3F)C(=O)N(C3CCC(=O)NC3=O)C4=O)C2)cn1` (stereo not shown) [Compound 81], the concentration for half-maximal inhibition (IC50) was < 1000 nM.
